Measured values taken from BindingDB's records for doi:10.1016/0960-894X(96)00014-5 (1996).

Assay: Compound was tested for inhibition of chymotrypsin-like protease of proteasome from postmortem human liver and brain

Row | SMILES | IC50
1 | CC(C)CC(NC(=O)C(CCCN=C(N)N[N+](=O)[O-])NC(=O)C(CCCCCCCCC#N)C1CCCC1)B1OC(C)(C)C(C)(C)O1 (stereo not drawn) [Alpha-ketocarbonyl boronic ester derivative] | 8 nM
2 | CC(C)CC(C=O)NC(=O)C(CCCN=C(N)N[N+](=O)[O-])NC(=O)C(CCCCCCCCN1C(=O)c2ccccc2C1=O)C1CCCC1 (stereo not drawn) [Alpha-ketocarbonyl derivative] | 2 nM
3 | CC(C)CC(NC(=O)C(CCCN=C(N)N[N+](=O)[O-])NC(=O)C(CCCCCCCCC#N)C1CCCC1)C(=O)CCl (stereo not drawn) [Alpha-ketocarbonyl derivative] | > 1000 nM
